Test results as given in patent publication US20150011508A1, “COMPOUNDS AND COMPOSITIONS AS C-KIT KINASE INHIBITORS” (priority 2011, published 2015).

Molecular target: T1, c-kit (Homo sapiens, UniProt P10721)
T1 construct: human Mo7e cells which endogenously express c-kit; endogenous in cells; host or cells: human Mo7e cells (SCF-dependent promegakaryocytic leukemia line)
Test: Mo7e cell proliferation assay (SCF dependent proliferation)
Assay type: cell-based
Conditions: human Mo7e cells stimulated with human recombinant SCF, 48 h, CellTiter Glo, 1% FBS (footnote)
Protocol: Compounds of Formula (I) and Formula (II) provided herein were assayed to measure their capacity to inhibit c-kit and PDGFR kinases using the appropriate assay described below: c-Kit inhibition was evaluated using the Mo7e cell proliferation assay, and PDGFR inhibition was evaluated using the Rat A10 cell proliferation assay and the Human TGHA-VSMC cell proliferation assay.
The compounds of Table 1 and Table 2 were tested for inhibition of SCF dependent proliferation using human Mo7e cells which endogenously express c-kit in a 384 well format. […] After 48 hours of incubation at 37° C., cell viability was measured by adding 25 uL of CellTiter Glo (Promega) to the cells and the luminescence was measured by a CLIPR CCD camera (Molecular Devices).
The IC50 value is given as that concentration of the test compound in question that provoke a response halfway between the baseline and maximum responses.

T1 sequence (P10721 26-976): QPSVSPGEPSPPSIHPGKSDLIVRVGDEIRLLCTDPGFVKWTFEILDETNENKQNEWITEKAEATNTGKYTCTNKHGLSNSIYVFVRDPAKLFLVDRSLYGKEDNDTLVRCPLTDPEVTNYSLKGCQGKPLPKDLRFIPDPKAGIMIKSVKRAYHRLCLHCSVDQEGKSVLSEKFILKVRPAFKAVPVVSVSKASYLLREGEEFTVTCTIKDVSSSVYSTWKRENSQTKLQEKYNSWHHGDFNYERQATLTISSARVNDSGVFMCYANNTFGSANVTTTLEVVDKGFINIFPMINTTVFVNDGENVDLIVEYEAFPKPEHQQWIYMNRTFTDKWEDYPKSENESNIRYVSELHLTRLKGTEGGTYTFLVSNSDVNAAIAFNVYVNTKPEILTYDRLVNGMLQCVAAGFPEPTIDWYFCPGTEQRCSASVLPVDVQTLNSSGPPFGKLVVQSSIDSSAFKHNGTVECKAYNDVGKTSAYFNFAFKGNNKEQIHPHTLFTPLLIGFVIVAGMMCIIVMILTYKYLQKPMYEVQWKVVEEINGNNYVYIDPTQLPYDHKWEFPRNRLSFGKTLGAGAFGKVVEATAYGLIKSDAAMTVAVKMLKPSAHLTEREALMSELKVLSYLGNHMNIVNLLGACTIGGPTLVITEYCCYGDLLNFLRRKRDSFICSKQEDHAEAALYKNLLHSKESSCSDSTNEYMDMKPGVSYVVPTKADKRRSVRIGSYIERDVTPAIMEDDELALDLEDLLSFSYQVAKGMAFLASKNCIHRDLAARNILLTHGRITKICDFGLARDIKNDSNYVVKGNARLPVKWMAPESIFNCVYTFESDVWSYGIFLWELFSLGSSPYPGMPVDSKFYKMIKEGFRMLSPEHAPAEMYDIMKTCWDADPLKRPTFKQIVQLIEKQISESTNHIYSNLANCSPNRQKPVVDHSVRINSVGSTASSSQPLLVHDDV

Row | Compound | IC50 (Table 2) [nM] | IC50 (Table 1) [nM]
1 | Cc1nc(-c2ccc(C)c(NC(=O)c3cnc4ccc(-c5sc(C(=O)NCCN6CCN(C)CC6)nc5C)cn34)c2)no1 [F248] | 140 | –
2 | [2H]C([2H])([2H])c1ccn2c(C(=O)Nc3cc(-c4noc(COCC(F)(F)F)n4)ccc3C)cnc2c1 [F78, 7-methyl-d3-N-(2-methyl-5-(5-((2,2,2-trifluoroethoxy)methyl)-1,2,4-oxadiazol-3-yl)phenyl)imidazo[1,2-a]pyridine-3-carboxamide] | – | 9
3 | Cc1ccc(-c2noc(CCC(C)O)n2)cc1NC(=O)c1cnc2ccccn12 (stereo not shown) [F121] | 104 | –
4 | COCCOCc1nc(-c2ccc(C)c(NC(=O)c3cnc4ccccn34)c2C)no1 [F215] | 886 | –
5 | COP(=O)(OC)OC(C)(CCc1nc(-c2ccc(C)c(NC(=O)c3cnc4cc(C)ccn34)c2)no1)C(F)(F)F (single isomer, unassigned) [F267] | – | 56
6 | Cc1ccc(-c2noc(CCNS(C)(=O)=O)n2)cc1NC(=O)c1cnc2ccccn12 [F114] | 409 | –
7 | Cc1ccc(-c2noc(CNC(=O)CCOCC(F)(F)F)n2)cc1NC(=O)c1cnc2ccccn12 [F166] | 213 | –
8 | Cc1ccn2c(C(=O)Nc3cc(-c4noc(NCCF)n4)ccc3C)cnc2c1 [F68] | – | 54
9 | Cc1ccc(-c2noc(COC(CF)CF)n2)cc1NC(=O)c1cnc2ccccn12 [F95] | – | 28
10 | Cc1ccc(-c2noc(CC(F)(F)F)n2)cc1NC(=O)c1cnc2ccccn12 [F231] | > 10000 | –
11 | Cc1ccc(-c2noc(CCC(=O)O)n2)cc1NC(=O)c1cnc2ccccn12 [F229] | 5450 | –
12 | Cc1nc(-c2ccc(C)c(NC(=O)c3cnc4ccc(CCN5CCOCC5C)cn34)c2)no1 (stereo not shown) [F186] | 416 | –
13 | COC(=O)NCc1nc(-c2ccc(C)c(NC(=O)c3cnc4ccccn34)c2)no1 [F128] | 113 | –
14 | COCc1nc(-c2ccc(C)c(NC(=O)c3cnc4ccccn34)c2)no1 [F130] | 142 | –
15 | Cc1nc(-c2ccc(C)c(NC(=O)c3cnc4ccc(CCN5CCOCC5)cn34)c2)no1 [F212] | 691 | –
16 | Cc1ccc(Nc2noc(C(C)(C)CO)n2)cc1NC(=O)c1cnc2ccccn12 [F46, N-(5-(5-(1-hydroxy-2-methylpropan-2-yl)-1,2,4-oxadiazol-3-ylamino)-2-methylphenyl)imidazo[1,2-a]pyridine-3-carboxamide] | – | 13
17 | Cc1ccc(-c2noc(CNS(C)(=O)=O)n2)cc1NC(=O)c1cnc2ccccn12 [F129] | 124 | –
18 | Cc1ccc(-c2noc(CNC(=O)OCCC(F)(F)F)n2)cc1NC(=O)c1cnc2ccccn12 [F220] | 1190 | –

Row | Compound | IC50 (Table 2) [nM] | IC50 (Table 1) [nM]
19 | Cc1ccc(-c2noc(CNC(=O)C(F)(F)F)n2)cc1NC(=O)c1cnc2ccccn12 [F24, N-(2-methyl-5-(5-((2,2,2-trifluoroacetamido)methyl)-1,2,4-oxadiazol-3-yl)phenyl)imidazo[1,2-a]pyridine-3-carboxamide] | – | 56
20 | Cc1ccc(-c2noc(CNC(=O)OCC(F)F)n2)cc1NC(=O)c1cnc2ccccn12 [F40, 2,2-difluoroethyl ((3-(3-(imidazo[1,2-a]pyridine-3-carboxamido)-4-methylphenyl)-1,2,4-oxadiazol-5-yl)methyl)carbamate] | – | 71
21 | Cc1ccc(-c2noc(CNC(=O)CCO)n2)cc1NC(=O)c1cnc2ccccn12 [F224] | 1480 | –
22 | CCNCc1nc(-c2ccc(C)c(NC(=O)c3cnc4ccccn34)c2)no1 [F145] | 219 | –
23 | Cc1ccc(-c2noc(N(C)CC(C)(C)O)n2)cc1NC(=O)c1cnc2cc(F)ccn12 [F65] | – | 100
24 | COCCOC(=O)NCCc1nc(-c2ccc(C)c(NC(=O)c3cnc4ccccn34)c2)no1 [F123] | 305 | –
25 | Cc1ccc(-c2noc(CN(C)C(=O)OC(C)(C)C)n2)cc1NC(=O)c1cnc2ccccn12 [F19, tert-butyl (3-(3-(imidazo[1,2-a]pyridine-3-carboxamido)-4-methylphenyl)-1,2,4-oxadiazol-5-yl)methyl(methyl)carbamate] | – | 57
26 | Cc1nc(-c2ccc(C)c(NC(=O)c3cnc4ccc(C5CC5)cn34)c2)no1 [F203] | 144 | –
27 | COCCNc1nc(-c2ccc(C)c(NC(=O)c3cnc4cc(C)ccn34)c2)no1 [F197] | 110 | –
28 | CCN(CC)C(=O)Cc1nc(-c2ccc(C)c(NC(=O)c3cnc4ccccn34)c2)no1 [F210] | 431 | –
29 | Cc1ccc(-c2noc(C(C)F)n2)cc1NC(=O)c1cnc2ccccn12 (stereo not shown) [F200] | 120 | –
30 | COCCOC(=O)NCc1nc(-c2ccc(C)c(NC(=O)c3cnc4ccccn34)c2)no1 [F165] | 512 | –
31 | Cc1ccc(-c2noc(COCC(F)F)n2)cc1NC(=O)c1cnc2ccccn12 [F94, N-(5-(5-((2,2-difluoroethoxy)methyl)-1,2,4-oxadiazol-3-yl)-2-methylphenyl)imidazo[1,2-a]pyridine-3-carboxamide] | – | 39
32 | COC(=O)NCc1nc(-c2ccc(C)c(NC(=O)c3cnc4cc(C(F)(F)F)ccn34)c2)no1 [F170] | 462 | –
33 | Cc1ccc(-c2noc([C@@H](C)NC(=O)OC(C)(C)C)n2)cc1NC(=O)c1cnc2ccccn12 [F126] | 102 | –
34 | CCOC(=O)NCCc1nc(-c2ccc(C)c(NC(=O)c3cnc4ccccn34)c2)no1 [F120] | 248 | –
35 | Cc1nc(-c2ccc(C)c(NC(=O)c3cnc4ccc(-c5c(C)nn(S(C)(=O)=O)c5C)cn34)c2)no1 [F105, 6-(3,5-dimethyl-1-(methylsulfonyl)-1H-pyrazol-4-yl)-N-(2-methyl-5-(5-methyl-1,2,4-oxadiazol-3-yl)phenyl)imidazo[1,2-a]pyridine-3-carboxamide] | – | 38

Now from value to molecule:

Row | IC50 (Table 2) [nM] | IC50 (Table 1) [nM] | Compound
36 | – | 27 | Cc1ccc(-c2noc(CCC(C)(O)C(F)(F)F)n2)cc1NC(=O)c1cnc2ccccn12 (stereo not shown) [F66, N-(2-methyl-5-(5-(4,4,4-trifluoro-3-hydroxy-3-methylbutyl)-1,2,4-oxadiazol-3-yl)phenyl)imidazo[1,2-a]pyridine-3-carboxamide]
37 | – | 48 | Cc1nc(-c2ccc(C)c(NC(=O)c3cnc4ccc(-c5ccncc5C)cn34)c2)no1 [F83]
38 | – | 80 | Cc1nc(-c2ccc(C)c(NC(=O)c3cnc4ccc(-c5cccn5C)cn34)c2)no1 [F101]
39 | – | 87 | Cc1ccc(-c2noc(CCC(C)(C)O)n2)cc1NC(=O)c1cnc2ccc(F)cn12 [F36, 6-fluoro-N-(5-(5-(3-hydroxy-3-methylbutyl)-1,2,4-oxadiazol-3-yl)-2-methylphenyl)imidazo[1,2-a]pyridine-3-carboxamide]
40 | – | 61 | Cc1nc(-c2ccc(C)c(NC(=O)c3cnc4ccc(-c5ccnc(N)c5)cn34)c2)no1 [F103]
41 | – | 47 | CCOC(=O)NCc1nc(-c2ccc(C)c(NC(=O)c3cnc4ccc(F)cn34)c2)no1 [F38]
42 | 394 | – | CC(C)(O)CCc1nc(-c2ccc(F)c(NC(=O)c3cnc4ccc(-c5cnn(CC(C)(C)O)c5)cn34)c2)no1 [F183]
43 | – | 90 | COCCOCc1nc(-c2ccc(C)c(NC(=O)c3cnc4ccc(C)cn34)c2)no1 [F58]
44 | – | 92 | COCCOCc1nc(-c2ccc(C)c(NC(=O)c3cnc4ccc(F)cn34)c2)no1 [F37]
45 | – | 6 | Cc1nc(C)c(-c2ccc3ncc(C(=O)Nc4cc(-c5noc(COCC(F)(F)F)n5)ccc4C)n3c2)s1 [F91, 6-(2,4-dimethylthiazol-5-yl)-N-(2-methyl-5-(5-((2,2,2-trifluoroethoxy)methyl)-1,2,4-oxadiazol-3-yl)phenyl)imidazo[1,2-a]pyridine-3-carboxamide]
46 | 328 | – | COCCOCc1nc(-c2ccc(F)c(NC(=O)c3cnc4ccc(-c5cnn(CC(C)(C)O)c5)cn34)c2)no1 [F182]
47 | 135 | – | Cc1nc(-c2ccc(C)c(NC(=O)c3cnc4ccc(-c5cnccc5C)cn34)c2)no1 [F202]
48 | 228 | – | Cc1nc(-c2ccc(C)c(NC(=O)c3cnc4ccc(-c5ccnn5C)cn34)c2)no1 [F208]
49 | 1250 | – | Cc1ccc(-c2noc(CCC(C)(C)O)n2)cc1NC(=O)c1cnc2ccc(-n3ccnc3)cn12 [F221]
50 | – | 46 | Cc1nc(-c2ccc(C)c(NC(=O)c3cnc4ccc(-c5cn[nH]c5)cn34)c2)no1 [F43]
51 | 157 | – | COC(=O)NCc1nc(-c2ccc(C)c(NC(=O)c3cnc4ccc(C)cn34)c2)no1 [F204]
52 | – | 16 | Cc1nc(-c2ccc(C)c(NC(=O)c3cnc4ccc(-c5c(C)nn(CCO)c5C)cn34)c2)no1 [F255, 6-(1-(2-hydroxyethyl)-3,5-dimethyl-1H-pyrazol-4-yl)-N-(2-methyl-5-(5-methyl-1,2,4-oxadiazol-3-yl)phenyl)imidazo[1,2-a]pyridine-3-carboxamide]
53 | – | 49 | Cc1ccn2c(C(=O)Nc3cc(-c4noc(CC[C@@](C)(O)C(F)(F)F)n4)ccc3C)cnc2c1 (single isomer, unassigned) [F76]
54 | 2180 | – | Cc1ccc(-c2noc(CCN)n2)cc1NC(=O)c1cnc2ccccn12 [F226]
55 | 150 | – | Cc1ccc(-c2noc(CCC(C)(C)O)n2)cc1NC(=O)c1cnc2ccc(COCC(F)(F)F)cn12 [F195]
56 | 126 | – | Cc1ccc(-c2noc(CCC(C)(C)O)n2)cc1NC(=O)c1cnc2ccc(N3CCOCC3)cn12 [F194]
57 | – | 13 | Cc1ccc2ncc(C(=O)Nc3cc(-c4noc(COCC(F)(F)F)n4)ccc3C)n2c1 [F79]
58 | – | 19 | Cc1nc(-c2ccc(C)c(NC(=O)c3cnc4ccc(-c5c[nH]nc5C)cn34)c2)no1 [F257, 6-(3-methyl-1H-pyrazol-4-yl)-N-(2-methyl-5-(5-methyl-1,2,4-oxadiazol-3-yl)phenyl)imidazo[1,2-a]pyridine-3-carboxamide]
